From patent US20230098254A1, “SCUTELLARIAE RADIX COMPOUNDS AND USE THEREOF FOR INHIBITING OXIDATIVE PHOSPHORYLATION PATHWAY OF MITOCHONDRIA” (priority 2020, published 2023)
Like-named read-outs stand apart in the source and are kept apart here.

What was measured:
OCI-AML-3 = assay: Cell viability CellTiter-Glo, OCI-AML-3; type: cell-based; details: Homo sapiens; OCI-AML-3, leukemia
Procedure: (§1) Cell viability was measured by using the Promega CellTiter-Glo kit, the kit reflected cell viability by directly measuring intracellular ATP content. Different cancer cells were cultured in culture medium, and the 50% inhibitory concentration IC50 of the compound SJ2858 was measured by Promega CellTiter-Glo kit. The name source and culture condition of each tumor cell line were as follows:
Cell line OCI-AML-3 (DSMZ, No. ACC-582) was cultured in RPMI1640 medium containing 20% fetal bovine serum (+P/S);

Daoy cell = assay: Cell viability, Promega CellTiter-Glo, Daoy cell; type: cell-based, human; details: Homo sapiens, Daoy, read-out: IC50 of cell viability inhibition
Procedure: Cell viability was detected by using the Promega CellTiter-Glo kit, the kit reflected cell viability by directly measuring intracellular ATP content. […] Daoy cell and NCI-H82 cell were cultured in DMEM containing 10% FBS (plus p/s).

WSU-DLCL2 = assay: Cell viability CellTiter-Glo, WSU-DLCL2; type: cell-based; details: Homo sapiens, WSUDLCL2; WSU-DLCL2, lymphoma
Procedure: as §1
Cell line WSU-DLCL2 (DSMZ, No. ACC-575) was cultured in RPMI1640 medium containing 10% fetal bovine serum (+P/S);

O=c1cc(-c2ccccc2)oc2cc(O)c(O)c(O)c12 [Compound SJ2858, baicalein]
IC50 (OCI-AML-3): 62.3 µM | IC50 (Daoy cell; Daoy cell with CSA (1.5 μM mPTP inhibitor)): 13.2 µM | IC50 (Daoy cell; Daoy cell without CSA (active mPTP)): 35.2 µM | IC50 (WSU-DLCL2): 21.3 µM
